pIC50, pKd: −log10 of the molar value.
Legend:
[1] = target: Glycogen synthase kinase-3 beta (Homo sapiens) (UniProt P49841); assay: Inhibition of GSK3beta (unknown origin) at 1 uM relative to control
[2] = system: Daudi; assay: Cytotoxicity against human Daudi cells measured after 8 days; assay type: functional, cell-based; conditions: 192 h
[3] = system: K562; assay: Cytotoxicity against human K562 cells measured after 8 days; assay type: functional, cell-based; conditions: K562, 192 h
[4] = target: Bromodomain-containing protein 8 (Homo sapiens, UniProt Q9H0E9); assay: Binding affinity to BRD8 bromodomain 2 (unknown origin) by BROMOscan assay
Chain of Bromodomain-containing protein 8 (Q9H0E9 whole entry): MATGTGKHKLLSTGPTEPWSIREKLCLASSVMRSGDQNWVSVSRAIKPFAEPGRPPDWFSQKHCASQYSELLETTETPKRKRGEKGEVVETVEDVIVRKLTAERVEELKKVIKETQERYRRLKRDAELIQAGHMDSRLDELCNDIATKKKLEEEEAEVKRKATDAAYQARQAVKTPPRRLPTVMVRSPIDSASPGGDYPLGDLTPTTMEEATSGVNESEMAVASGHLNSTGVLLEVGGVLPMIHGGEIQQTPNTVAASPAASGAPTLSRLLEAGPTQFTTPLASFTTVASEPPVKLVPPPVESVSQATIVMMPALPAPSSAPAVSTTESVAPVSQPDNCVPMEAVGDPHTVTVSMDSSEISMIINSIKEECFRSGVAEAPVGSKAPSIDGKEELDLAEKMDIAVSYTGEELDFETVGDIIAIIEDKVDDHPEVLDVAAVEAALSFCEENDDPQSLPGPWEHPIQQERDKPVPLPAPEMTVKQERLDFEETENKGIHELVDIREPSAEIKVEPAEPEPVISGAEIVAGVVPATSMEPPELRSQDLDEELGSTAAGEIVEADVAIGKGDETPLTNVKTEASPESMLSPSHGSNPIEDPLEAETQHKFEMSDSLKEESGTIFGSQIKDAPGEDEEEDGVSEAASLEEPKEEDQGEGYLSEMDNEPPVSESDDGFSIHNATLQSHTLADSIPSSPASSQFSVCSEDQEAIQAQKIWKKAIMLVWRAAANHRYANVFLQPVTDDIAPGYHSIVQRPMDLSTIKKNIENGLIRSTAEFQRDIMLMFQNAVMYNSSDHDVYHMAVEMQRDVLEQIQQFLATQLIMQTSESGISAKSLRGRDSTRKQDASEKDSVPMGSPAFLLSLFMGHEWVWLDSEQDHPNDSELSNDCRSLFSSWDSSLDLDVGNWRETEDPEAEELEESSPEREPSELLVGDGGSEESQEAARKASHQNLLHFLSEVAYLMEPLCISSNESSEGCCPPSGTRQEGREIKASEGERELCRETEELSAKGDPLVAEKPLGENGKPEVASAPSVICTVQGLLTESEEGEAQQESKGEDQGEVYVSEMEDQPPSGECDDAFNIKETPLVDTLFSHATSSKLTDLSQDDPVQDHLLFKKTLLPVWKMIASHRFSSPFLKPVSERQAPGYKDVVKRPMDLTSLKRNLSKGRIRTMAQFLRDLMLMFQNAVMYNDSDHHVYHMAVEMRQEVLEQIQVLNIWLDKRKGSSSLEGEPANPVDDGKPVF

[5] = system: MV4-11; assay: Cytotoxicity against human MV4-11 cells measured after 8 days; assay type: functional, cell-based; conditions: MV4-11, 192 h
[6] = target: T1, Peroxisome proliferator-activated receptor gamma (Homo sapiens) (UniProt P37231); assay: Inhibition of human PPARgamma at 10 uM relative to control
T1 sequence (whole entry): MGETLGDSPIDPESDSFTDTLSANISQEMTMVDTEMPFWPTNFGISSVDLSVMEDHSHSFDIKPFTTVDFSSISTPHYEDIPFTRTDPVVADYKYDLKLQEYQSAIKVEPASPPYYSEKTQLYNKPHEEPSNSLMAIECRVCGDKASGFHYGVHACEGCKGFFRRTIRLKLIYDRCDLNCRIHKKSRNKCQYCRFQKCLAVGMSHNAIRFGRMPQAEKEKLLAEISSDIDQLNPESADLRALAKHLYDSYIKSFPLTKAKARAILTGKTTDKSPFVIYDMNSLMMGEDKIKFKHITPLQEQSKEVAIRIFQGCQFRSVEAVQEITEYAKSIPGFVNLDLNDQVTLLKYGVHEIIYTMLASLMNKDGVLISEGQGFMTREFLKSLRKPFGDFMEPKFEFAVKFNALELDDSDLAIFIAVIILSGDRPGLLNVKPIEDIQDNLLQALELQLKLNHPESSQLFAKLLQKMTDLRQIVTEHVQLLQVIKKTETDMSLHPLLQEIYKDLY

[7] = Cytotoxicity against human SW527 cells measured after 8 days; assay type: functional, cell-based; conditions: SW527, 192 h
[8] = system: SK-BR-3; assay: Cytotoxicity against human SK-BR-3 cells measured after 8 days; assay type: functional, cell-based; conditions: SK-BR-3, 192 h
[9] = target: Adrenergic receptor alpha-2 (Rattus norvegicus) (UniProt P22086+P19328+P22909); assay: Displacement of [3H]-RX 821002 from rat alpha2 adrenoceptor at 10 uM after 60 mins by scintillation counting analysis relative to control; assay type: protein assay
[10] = system: HCC827; assay: Cytotoxicity against human HCC827 cells measured after 8 days; assay type: functional, cell-based; conditions: HCC827, 192 h
[11] = system: U-698-M; assay: Cytotoxicity against human U-698-M cells measured after 8 days; assay type: functional, cell-based; conditions: 192 h
[12] = target: Bromodomain-containing protein 4 (Homo sapiens, UniProt O60885); assay: Displacement of biotinylated small-molecule ligand from recombinant His-tagged BRD4 bromodomain 1 (unknown origin) measured after 10 mins by TR-FRET assay
[13] = system: KARPAS-422; assay: Cytotoxicity against human KARPAS-422 cells measured after 8 days; assay type: functional, cell-based; conditions: KARPAS-422, 192 h
[14] = system: MHH-PREB-1; assay: Cytotoxicity against human MHH-PREB-1 cells measured after 8 days; assay type: functional, cell-based; conditions: MHH-PREB-1, 192 h
[15] = target: T2, Myotonin-protein kinase (Homo sapiens) (UniProt Q09013); assay: Inhibition of DMPK (unknown origin) at 1 uM relative to control
T2 sequence (whole entry): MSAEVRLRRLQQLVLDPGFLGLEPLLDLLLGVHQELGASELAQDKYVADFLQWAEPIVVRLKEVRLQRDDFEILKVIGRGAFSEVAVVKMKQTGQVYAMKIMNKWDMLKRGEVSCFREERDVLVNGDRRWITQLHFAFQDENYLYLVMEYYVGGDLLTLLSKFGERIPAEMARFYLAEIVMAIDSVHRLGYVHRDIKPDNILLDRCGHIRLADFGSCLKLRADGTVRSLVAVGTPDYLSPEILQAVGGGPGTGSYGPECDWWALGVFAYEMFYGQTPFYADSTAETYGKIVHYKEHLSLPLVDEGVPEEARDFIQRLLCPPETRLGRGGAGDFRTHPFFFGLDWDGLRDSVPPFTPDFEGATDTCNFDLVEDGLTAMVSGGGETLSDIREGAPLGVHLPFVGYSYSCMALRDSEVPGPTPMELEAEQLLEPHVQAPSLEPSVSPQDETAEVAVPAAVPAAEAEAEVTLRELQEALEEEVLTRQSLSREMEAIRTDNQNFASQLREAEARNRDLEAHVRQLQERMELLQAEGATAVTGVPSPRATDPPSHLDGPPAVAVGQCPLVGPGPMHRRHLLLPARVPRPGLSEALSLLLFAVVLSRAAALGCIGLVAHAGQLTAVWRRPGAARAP

[16] = target: Bromodomain testis-specific protein (Homo sapiens, UniProt Q58F21); assay: Binding affinity to BRDT bromodomain 1/2 (unknown origin) by BROMOscan assay
[17] = system: LS180; assay: Cytotoxicity against human LS180 cells measured after 8 days; assay type: functional, cell-based; conditions: LS180, 192 h
[18] = Cytotoxicity against human OUMS-23 cells measured after 8 days; assay type: functional, cell-based; conditions: OUMS-23, 192 h
[19] = target: Dual specificity mitogen-activated protein kinase kinase 1 (Homo sapiens) (UniProt Q02750); assay: Inhibition of MEK1 (unknown origin) at 1 uM relative to control
[20] = system: COLO-678; assay: Cytotoxicity against human COLO-678 cells measured after 8 days; assay type: functional, cell-based; conditions: COLO-678, 192 h
[21] = Cytotoxicity against human NCI-H2373 cells measured after 8 days; assay type: functional, cell-based; conditions: NCI-H2373, 192 h
[22] = Cytotoxicity against human LS174T-HM7 cells measured after 8 days; assay type: functional, cell-based; conditions: LS174T-HM7, 192 h
[23] = target: CREB-binding protein (Homo sapiens, UniProt Q92793); assay: Binding affinity to human partial length CREBBP (R1081 to G1197 residues) expressed in bacterial expression system by BROMOscan assay
Chain of CREB-binding protein (Q92793 whole entry, the tested form may be a part): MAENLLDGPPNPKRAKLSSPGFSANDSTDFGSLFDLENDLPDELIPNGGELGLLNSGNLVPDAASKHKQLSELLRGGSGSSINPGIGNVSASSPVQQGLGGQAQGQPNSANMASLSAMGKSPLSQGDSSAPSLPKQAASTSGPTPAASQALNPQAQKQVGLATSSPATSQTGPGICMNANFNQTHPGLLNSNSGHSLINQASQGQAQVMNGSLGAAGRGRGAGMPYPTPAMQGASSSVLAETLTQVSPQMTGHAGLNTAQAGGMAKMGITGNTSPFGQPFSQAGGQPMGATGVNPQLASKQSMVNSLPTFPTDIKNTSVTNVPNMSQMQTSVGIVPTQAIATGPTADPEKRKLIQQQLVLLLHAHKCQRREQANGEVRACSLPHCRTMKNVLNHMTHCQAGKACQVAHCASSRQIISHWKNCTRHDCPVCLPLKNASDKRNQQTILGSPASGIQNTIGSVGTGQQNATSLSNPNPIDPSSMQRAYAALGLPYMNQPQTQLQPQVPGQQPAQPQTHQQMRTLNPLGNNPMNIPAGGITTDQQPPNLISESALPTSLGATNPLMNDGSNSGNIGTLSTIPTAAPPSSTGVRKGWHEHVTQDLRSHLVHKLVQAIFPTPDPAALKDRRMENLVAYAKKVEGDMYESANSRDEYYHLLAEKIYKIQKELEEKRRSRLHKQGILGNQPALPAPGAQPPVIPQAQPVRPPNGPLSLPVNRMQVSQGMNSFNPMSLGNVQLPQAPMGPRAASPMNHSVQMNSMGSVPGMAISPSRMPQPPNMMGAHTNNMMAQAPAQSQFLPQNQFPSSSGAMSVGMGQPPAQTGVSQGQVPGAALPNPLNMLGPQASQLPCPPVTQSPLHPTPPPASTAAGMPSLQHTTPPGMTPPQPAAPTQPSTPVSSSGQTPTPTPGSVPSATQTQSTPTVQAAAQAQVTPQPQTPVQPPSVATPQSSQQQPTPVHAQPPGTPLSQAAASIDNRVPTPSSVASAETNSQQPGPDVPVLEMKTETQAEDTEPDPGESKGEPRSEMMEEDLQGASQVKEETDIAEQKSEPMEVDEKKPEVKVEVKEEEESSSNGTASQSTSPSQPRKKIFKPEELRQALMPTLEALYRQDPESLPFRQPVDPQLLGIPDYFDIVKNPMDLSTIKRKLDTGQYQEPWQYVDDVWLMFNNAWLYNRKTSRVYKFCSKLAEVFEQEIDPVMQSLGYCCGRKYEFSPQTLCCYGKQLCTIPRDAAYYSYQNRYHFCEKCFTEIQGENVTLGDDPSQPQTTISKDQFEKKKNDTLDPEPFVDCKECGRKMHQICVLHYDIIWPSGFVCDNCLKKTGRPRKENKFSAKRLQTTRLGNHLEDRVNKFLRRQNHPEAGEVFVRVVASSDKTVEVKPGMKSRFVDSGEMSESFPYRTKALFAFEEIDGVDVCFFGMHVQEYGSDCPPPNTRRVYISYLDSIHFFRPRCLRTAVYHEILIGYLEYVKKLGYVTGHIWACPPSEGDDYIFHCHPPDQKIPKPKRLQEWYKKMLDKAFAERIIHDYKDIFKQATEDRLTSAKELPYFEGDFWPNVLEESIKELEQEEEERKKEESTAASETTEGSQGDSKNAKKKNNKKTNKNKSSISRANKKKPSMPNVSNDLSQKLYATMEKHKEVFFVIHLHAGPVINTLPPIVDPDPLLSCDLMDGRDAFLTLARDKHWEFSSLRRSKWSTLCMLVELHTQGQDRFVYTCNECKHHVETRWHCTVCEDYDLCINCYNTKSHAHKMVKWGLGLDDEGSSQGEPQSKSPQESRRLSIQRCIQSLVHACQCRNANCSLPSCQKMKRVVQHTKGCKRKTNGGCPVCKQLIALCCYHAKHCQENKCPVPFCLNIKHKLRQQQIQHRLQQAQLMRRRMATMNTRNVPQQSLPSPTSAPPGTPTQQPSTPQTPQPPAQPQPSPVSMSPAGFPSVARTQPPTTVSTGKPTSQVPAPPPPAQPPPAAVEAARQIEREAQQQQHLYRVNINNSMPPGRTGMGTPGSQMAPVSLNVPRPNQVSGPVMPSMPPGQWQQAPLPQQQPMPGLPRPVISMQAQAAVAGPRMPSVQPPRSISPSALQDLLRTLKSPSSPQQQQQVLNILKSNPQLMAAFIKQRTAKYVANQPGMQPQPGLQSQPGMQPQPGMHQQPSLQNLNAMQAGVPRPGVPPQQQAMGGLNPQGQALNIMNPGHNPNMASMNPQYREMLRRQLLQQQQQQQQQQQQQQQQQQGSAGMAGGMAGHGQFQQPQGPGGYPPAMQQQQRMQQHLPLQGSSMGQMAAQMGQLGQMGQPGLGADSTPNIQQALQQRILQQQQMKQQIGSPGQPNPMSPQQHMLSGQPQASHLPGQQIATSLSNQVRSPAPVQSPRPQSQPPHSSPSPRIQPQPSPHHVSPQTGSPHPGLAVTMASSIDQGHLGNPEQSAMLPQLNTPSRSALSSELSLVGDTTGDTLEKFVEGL

[24] = system: DB; assay: Cytotoxicity against human DB cells measured after 8 days; assay type: functional, cell-based; conditions: 192 h
[25] = system: ABC-1; assay: Cytotoxicity against human ABC-1 cells measured after 8 days; assay type: functional, cell-based; conditions: ABC-1, 192 h
[26] = target: Bromodomain-containing protein 2 (Homo sapiens, UniProt P25440); assay: Binding affinity to human partial length BRD2 bromodomain 1/2 isoform 1 (K71 to D455 residues) by BROMOscan assay
Chain of Bromodomain-containing protein 2 (P25440 whole entry, the tested form may be a part, canonical isoform): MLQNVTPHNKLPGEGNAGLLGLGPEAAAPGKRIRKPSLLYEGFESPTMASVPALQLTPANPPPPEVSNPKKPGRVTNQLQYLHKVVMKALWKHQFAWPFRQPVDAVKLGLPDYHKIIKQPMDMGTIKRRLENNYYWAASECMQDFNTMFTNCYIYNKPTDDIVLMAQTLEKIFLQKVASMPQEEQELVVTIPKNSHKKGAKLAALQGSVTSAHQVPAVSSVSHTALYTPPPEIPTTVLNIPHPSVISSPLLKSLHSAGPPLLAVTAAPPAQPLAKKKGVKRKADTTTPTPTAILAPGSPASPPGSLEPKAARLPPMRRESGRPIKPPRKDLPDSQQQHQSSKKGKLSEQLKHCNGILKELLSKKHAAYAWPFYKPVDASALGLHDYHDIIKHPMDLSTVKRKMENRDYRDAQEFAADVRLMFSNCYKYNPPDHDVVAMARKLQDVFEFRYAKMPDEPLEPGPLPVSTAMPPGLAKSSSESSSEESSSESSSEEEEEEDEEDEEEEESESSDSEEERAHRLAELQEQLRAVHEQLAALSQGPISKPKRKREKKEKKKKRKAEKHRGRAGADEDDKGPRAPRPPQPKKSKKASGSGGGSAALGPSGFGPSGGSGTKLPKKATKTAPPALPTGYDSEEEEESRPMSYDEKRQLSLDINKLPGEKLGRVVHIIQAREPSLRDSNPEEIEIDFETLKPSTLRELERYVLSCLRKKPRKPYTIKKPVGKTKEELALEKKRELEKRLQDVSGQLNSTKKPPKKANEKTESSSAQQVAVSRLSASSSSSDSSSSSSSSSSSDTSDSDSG

Chain of Glycogen synthase kinase-3 beta (Homo sapiens) (P49841 whole entry, looked up): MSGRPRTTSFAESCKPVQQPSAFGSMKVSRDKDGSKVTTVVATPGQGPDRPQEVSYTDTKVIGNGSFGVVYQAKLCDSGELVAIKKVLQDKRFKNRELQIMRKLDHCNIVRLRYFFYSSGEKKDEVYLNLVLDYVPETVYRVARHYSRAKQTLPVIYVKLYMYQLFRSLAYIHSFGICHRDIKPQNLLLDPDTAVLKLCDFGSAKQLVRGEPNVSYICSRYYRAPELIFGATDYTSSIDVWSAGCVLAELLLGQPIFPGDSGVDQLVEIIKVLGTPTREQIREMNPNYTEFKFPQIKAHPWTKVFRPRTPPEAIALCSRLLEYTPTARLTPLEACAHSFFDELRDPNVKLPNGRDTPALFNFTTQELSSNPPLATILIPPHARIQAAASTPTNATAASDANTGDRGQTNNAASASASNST

| Compound | inhibition [1] [%] | pIC50 [2] | pIC50 [3] | pKd [4] | pIC50 [5] | inhibition [6] [%] | pIC50 [7] | pIC50 [8] | Activity [9] [%] | pIC50 [10] | pIC50 [11] | pIC50 [12] | pIC50 [13] | pIC50 [14] | inhibition [15] [%] | pKd [16] | pIC50 [17] | pIC50 [18] | pKd [23] | pKd [26] | further results |
| --- | --- | --- | --- | --- | --- | --- | --- | --- | --- | --- | --- | --- | --- | --- | --- | --- | --- | --- | --- | --- | --- |
| C/C=C/Cn1cc(-c2ccc(C(=O)N3CCOCC3)cc2)c2cc[nH]c2c1=O | -2 | 4.70 | 4.70 | < 5.00 | 5.16 | 49 | 4.70 | 4.70 | -7 | 4.70 | 4.70 | 5.47 | 4.84 | 4.70 | -2 | 5.54 | 4.70 | 4.70 | < 5.00 | 5.64 | inhibition [19]: 3%; pIC50 [20]: 4.70; pIC50 [21]: 4.70; pIC50 [22]: 4.70; pIC50 [24]: 4.70; pIC50 [25]: 4.70 |
| C/C=C/Cn1cc(-c2ccc(C(C)(C)O)cc2OC)c2cc[nH]c2c1=O | 3.5 | 5.42 | 4.70 | < 5.00 | 5.10 | 18 | 4.70 | 4.70 | -1 | 4.70 | 4.70 | 5.29 | 4.70 | 4.70 | 2.5 | 5.92 | 4.70 | 4.70 | 5.46 | 5.55 | inhibition [19]: 1%; pIC50 [20]: 4.70; pIC50 [21]: 4.70; pIC50 [22]: 4.70; pIC50 [24]: 4.77; pIC50 [25]: 4.70 |
| C/C=C/Cn1cc(-c2cc(OC)c(C(=O)N3CCOCC3)cc2OC)c2cc(C)[nH]c2c1=O | 2.5 | 5.70 | 5.70 | < 5.00 | 5.70 | 9 | 5.70 | 5.70 | -12 | 5.70 | 5.70 | < 4.70 | 5.70 | 5.70 | -4 | < 5.00 | 5.70 | 5.70 | < 5.00 | < 5.00 | inhibition [19]: 4%; pIC50 [20]: 5.70; pIC50 [21]: 5.70; pIC50 [22]: 5.70; pIC50 [24]: 5.70; pIC50 [25]: 5.70 |
| C/C=C/Cn1cc(-c2cc(OC)c(C(C)(C)O)cc2OC)c2cc(C)[nH]c2c1=O | – | – | – | < 5.00 | – | – | – | – | – | – | – | < 4.70 | – | – | – | 5.21 | – | – | < 5.00 | 5.77 | – |

Source: ChEMBL document CHEMBL5260810, “Inhibition of bromodomain-containing protein 9 for the prevention of epigenetically-defined drug resistance” (Bioorg Med Chem Lett, 2017)
